Reference: patent US8815260B1, “Treatment of restenosis and stenosis with dasatinib” (University of South Florida, priority 2005, dated 2014)
Where two headings read alike, the source gives them in different places.

Key:
porcine SMC = conditions: Banai et al., 1998; cited from earlier work
STAT3, Akt, Erk2 [1] = assay: PDGF-stimulated activation of STAT3, Akt and Erk2 in A10 cells (immunoblotting); type: cell-based, rat
STAT3, Akt, Erk2 [2] = assay: PDGF-stimulated activation of STAT3, Akt and Erk2 in primary human AoSMCs; type: cell-based; conditions: 0-50 nM, not reduced below basal activation state
A10 cells = assay: Flow cytometric analysis of cell cycle phase distribution, PDGF-treated A10 cells; type: cell-based, rat; conditions: PDGF 10 ng/ml plus 50 nM
PDGFRβ = PDGFRβ (Rattus norvegicus, UniProt Q05030); conditions: A10 cells
PDGFRβ, sequence (Q05030 32-1097): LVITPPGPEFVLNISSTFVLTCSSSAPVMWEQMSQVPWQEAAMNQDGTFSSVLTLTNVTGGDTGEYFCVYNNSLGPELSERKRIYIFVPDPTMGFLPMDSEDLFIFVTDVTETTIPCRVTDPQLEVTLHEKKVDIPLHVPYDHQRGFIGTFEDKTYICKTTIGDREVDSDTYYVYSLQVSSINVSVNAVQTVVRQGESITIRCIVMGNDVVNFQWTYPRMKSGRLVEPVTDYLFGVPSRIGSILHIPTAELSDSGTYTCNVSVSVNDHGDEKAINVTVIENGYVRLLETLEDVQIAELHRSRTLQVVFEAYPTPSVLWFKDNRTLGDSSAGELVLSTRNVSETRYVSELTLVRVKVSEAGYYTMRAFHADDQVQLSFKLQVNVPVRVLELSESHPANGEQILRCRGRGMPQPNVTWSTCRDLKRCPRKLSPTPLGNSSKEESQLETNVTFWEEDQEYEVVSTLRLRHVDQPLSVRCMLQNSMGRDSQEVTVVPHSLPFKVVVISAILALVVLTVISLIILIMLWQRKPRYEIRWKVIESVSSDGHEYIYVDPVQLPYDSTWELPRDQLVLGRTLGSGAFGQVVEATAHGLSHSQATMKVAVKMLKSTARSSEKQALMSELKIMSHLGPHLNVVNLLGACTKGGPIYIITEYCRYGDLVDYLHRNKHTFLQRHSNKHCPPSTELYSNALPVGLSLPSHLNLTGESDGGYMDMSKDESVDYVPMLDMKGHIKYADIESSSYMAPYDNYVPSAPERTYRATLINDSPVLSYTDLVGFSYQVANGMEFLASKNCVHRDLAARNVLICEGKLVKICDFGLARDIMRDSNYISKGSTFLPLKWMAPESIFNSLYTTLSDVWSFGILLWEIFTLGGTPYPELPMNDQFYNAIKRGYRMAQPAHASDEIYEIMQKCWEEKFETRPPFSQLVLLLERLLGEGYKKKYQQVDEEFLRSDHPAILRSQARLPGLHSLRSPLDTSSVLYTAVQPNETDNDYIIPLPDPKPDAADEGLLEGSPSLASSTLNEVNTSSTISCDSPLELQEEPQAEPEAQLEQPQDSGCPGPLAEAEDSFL

[3] = cited from earlier work
IGF-1R = IGF-1R (Rattus norvegicus, UniProt P24062); conditions: A10 cells, up to 50 nM, IGF-1 10 ng/ml 10 min
IGF-1R, sequence (P24062 31-1370): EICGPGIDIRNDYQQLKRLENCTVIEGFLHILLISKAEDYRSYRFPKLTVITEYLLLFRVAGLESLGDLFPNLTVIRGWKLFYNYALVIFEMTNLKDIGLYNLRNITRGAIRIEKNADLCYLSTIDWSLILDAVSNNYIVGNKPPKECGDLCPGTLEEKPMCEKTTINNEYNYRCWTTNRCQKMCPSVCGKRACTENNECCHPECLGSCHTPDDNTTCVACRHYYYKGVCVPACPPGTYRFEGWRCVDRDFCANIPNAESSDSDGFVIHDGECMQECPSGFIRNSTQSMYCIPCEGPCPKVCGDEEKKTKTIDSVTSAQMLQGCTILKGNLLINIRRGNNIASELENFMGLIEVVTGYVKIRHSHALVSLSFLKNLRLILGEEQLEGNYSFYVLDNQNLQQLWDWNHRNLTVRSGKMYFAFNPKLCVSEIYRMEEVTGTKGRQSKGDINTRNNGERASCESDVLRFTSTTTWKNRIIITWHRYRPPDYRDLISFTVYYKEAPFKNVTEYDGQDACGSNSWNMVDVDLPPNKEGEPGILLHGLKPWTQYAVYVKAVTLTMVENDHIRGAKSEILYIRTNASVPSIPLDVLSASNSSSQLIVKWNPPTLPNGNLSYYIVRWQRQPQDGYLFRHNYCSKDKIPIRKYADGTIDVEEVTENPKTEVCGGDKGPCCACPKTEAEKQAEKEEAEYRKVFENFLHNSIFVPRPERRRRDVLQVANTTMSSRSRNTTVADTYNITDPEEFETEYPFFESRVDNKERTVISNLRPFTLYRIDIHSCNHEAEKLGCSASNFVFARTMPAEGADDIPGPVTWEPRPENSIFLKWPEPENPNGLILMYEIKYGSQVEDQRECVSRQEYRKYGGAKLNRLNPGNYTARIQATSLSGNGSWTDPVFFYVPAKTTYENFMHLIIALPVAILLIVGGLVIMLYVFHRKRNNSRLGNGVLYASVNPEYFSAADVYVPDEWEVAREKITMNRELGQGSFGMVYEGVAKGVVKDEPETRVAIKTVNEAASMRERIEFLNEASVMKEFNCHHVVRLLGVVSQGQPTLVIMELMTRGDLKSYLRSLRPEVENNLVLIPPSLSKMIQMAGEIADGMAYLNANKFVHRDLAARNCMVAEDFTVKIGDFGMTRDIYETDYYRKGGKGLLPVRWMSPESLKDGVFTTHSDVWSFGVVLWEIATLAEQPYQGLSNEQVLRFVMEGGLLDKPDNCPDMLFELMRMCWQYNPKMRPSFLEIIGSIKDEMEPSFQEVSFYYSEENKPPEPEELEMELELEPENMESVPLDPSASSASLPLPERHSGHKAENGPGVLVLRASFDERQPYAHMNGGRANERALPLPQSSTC

PDGFR = conditions: Buchdunger et al., 1996; Sanz-Gonzalez et al., 2004; cited from earlier work

For `Cc1cc2ncc(-c3ccccc3)nc2cc1C` [AG-1295], the “inhibition of porcine SMC proliferation, nature of the effect” value (porcine SMC) is listed as “reversible and not toxic”.

With `Cc1nc(Nc2ncc(C(=O)Nc3c(C)cccc3Cl)s2)cc(N2CCN(CCO)CC2)n1` [BMS-354825, N-(2-chloro-6-methylphenyl)-2-[[6-[4-[(2-hydroxyethyl)-1-piperazinyl]-2-methyl-4-pyrimidinyl]amino]-5-thiazolecarboxamide, monohydrate] the “PDGF-stimulated activation of STAT3, Akt and Erk2 (activation-specific phosphorylation)” value (STAT3, Akt, Erk2 [1]; 50 nM, PDGF-BB 5 ng/ml) was “inhibited”, the “PDGF-induced further activation of STAT3” value (STAT3, Akt, Erk2 [2]) was “blocked” and the “percentage of cells in G2 phase” value (A10 cells; 16 h (PDGF alone 10.74%, no PDGF 0.99%)) was 3.75%. For the same molecule, the “percentage of cells in S phase” value (A10 cells; 16 h (PDGF alone 23.83%, no PDGF 10.4%)) was 7.99%, the “percentage of cells in G1 phase” value (A10 cells; 16 h (PDGF alone 65.44%, no PDGF 88.65%)) was 88.29% and the “PDGF-stimulated PDGFRβ tyrosine phosphorylation” value (PDGFRβ; 50 nM, PDGF-BB 5 ng/ml, all time points (0-30 min)) was “effectively blocked”. For the same molecule, the Cmax ([3]; BMS-354825 dosing for CML, oral, read-out: Cmax) was 60 to 120 nM, the Cmax ([3]; oral delivery route, 140 mg/day) was 30 to 60 ng/mL and the “inhibition of IGF-1R tyrosine phosphorylation” value (IGF-1R) was “No detectable inhibition”.

For `Cc1ccc(NC(=O)c2ccc(CN3CCN(C)CC3)cc2)cc1Nc1nccc(-c2cccnc2)n1` [imatinib], the “concentration giving complete inhibition of PDGF-stimulated Akt and Erk2 activation” value (STAT3, Akt, Erk2 [1]; PDGF-BB 5 ng/ml 5 min) was 5 µM, the “decrease in STAT3 tyrosine phosphorylation” value (STAT3, Akt, Erk2 [1]; PDGF-BB 5 ng/ml 5 min, relative to the 5 μM needed for Akt and Erk2) was “appeared at lower concentrations” and the “concentration required for the same level (complete block) of PDGFR inhibition” value (PDGFRβ; parallel experiments, PDGF-BB 5 ng/ml 5 min) was 5 µM. For the same molecule, the “concentrations required for inhibition of PDGFR in cell-based assays” value (PDGFR) was “micromolar concentrations”.
